ChEMBL document CHEMBL1143193, “A new family of H3 receptor antagonists based on the natural product Conessine” (Bioorg Med Chem Lett, 2008)
Active and inactive are the calls of the source. The rule behind the calls is not given here.

Tests used:
Histamine H3 receptor = Histamine H3 receptor (Rattus norvegicus, UniProt Q9QYN8); test: Displacement of N-[3H]methylhistamine from histamine H3 receptor in rat cortex
Homo sapiens [1] = species: Homo sapiens; test: Selectivity for human histamine H3 receptor over human histamine H1 receptor
Homo sapiens [2] = species: Homo sapiens; test: Selectivity for human histamine H3 receptor over human histamine H2 receptor
Homo sapiens [3] = species: Homo sapiens; test: Selectivity for human histamine H3 receptor over human histamine H4 receptor
[4] = Oral bioavailability in rat; type: ADME, organism-based; settings: in vivo
[5] = Half life in rat; type: ADME, organism-based; settings: in vivo
Rattus norvegicus = species: Rattus norvegicus; test: Inhibition of R-alpha-methylhistamine-induced drinking response in rat dipsogenia model; type: functional
[6] = biological target: Histamine H3 receptor (Rattus norvegicus) (UniProt Q9QYN8); test: Displacement of N-[3H]methylhistamine from histamine H3 receptor in rat cortex at < 5 uM
Chain of Histamine H3 receptor (Rattus norvegicus) (Q9QYN8 whole entry): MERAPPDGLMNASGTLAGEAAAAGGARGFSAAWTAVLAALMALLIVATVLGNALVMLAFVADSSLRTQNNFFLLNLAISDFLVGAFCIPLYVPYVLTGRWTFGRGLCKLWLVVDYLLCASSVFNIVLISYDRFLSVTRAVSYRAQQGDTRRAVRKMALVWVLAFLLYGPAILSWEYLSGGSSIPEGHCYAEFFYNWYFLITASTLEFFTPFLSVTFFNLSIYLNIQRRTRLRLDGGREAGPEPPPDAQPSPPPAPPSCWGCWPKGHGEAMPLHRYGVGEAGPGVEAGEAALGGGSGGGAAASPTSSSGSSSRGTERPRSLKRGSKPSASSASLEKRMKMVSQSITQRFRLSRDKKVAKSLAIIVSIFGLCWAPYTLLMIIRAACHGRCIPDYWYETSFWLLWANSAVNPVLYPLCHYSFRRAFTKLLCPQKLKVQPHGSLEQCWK

Chain of Histamine H3 receptor (Q9QYN8 whole entry): as above

Row | SMILES | Ki (Histamine H3 receptor; read-out: Ki) | other results
1 | O=C1CCCN1CCc1ccc(C2=CCC3CN(Cc4ccccc4)CC23)cc1 (stereo not drawn) | 310 nM | Ki (Histamine H3 receptor; read-out: Log Ki (converted)): 132 nM
2 | C1=C(c2ccc(CCN3CCCC3)cc2)C2CN(CC3CC3)CC2C1 (racemic) | 0.1 nM | Ki (Histamine H3 receptor; read-out: Log Ki (converted)): 0.112 nM
3 | C1=C(c2ccc(CCN3CCCC3)cc2)C2CN(c3ncccn3)CC2C1 (stereo not drawn) | 36 nM | 
4 | C1=C(c2ccc(CCN3Cc4ccccc4C3)cc2)C2CN(Cc3ccccc3)CC2C1 (stereo not drawn) | 256 nM | 
5 | C1=C(c2ccc(CCN3CCCC3)cc2)[C@H]2CN(Cc3ccccc3)C[C@H]2C1 | 0.75 nM | 
6 | C1=C(c2ccc(CCN3CCOCC3)cc2)C2CN(Cc3ccccc3)CC2C1 (stereo not drawn) | 1.7 nM | 
7 | C1=C(c2ccc(CCN3CCCC3)cc2)[C@@H]2CN(C3CCCC3)C[C@@H]2C1 | 0.08 nM | 
8 | C1=C(c2ccc(CCN3CCCC3)cc2)[C@@H]2CN(CC3CC3)C[C@@H]2C1 | 0.07 nM | Selectivity ratio (Homo sapiens [1]): > 1000; Selectivity ratio (Homo sapiens [2]): > 1000; Selectivity ratio (Homo sapiens [3]): > 1000; bioavailability [4]: 78%; half-life [5]: 6 h; Activity (Rattus norvegicus): Dose-dependent effect; minimal effective dose (Rattus norvegicus; read-out: MED): 3 mg/kg
9 | CC1CCCN1CCc1ccc(C2=CCC3CN(Cc4ccccc4)CC23)cc1 (stereo not drawn) | 0.05 nM | 
10 | CN(C)CCc1ccc(C2=CCC3CN(Cc4ccccc4)CC23)cc1 (stereo not drawn) | 2.3 nM | 
11 | C1=C(c2ccc(CCN3CCc4ccccc43)cc2)C2CN(Cc3ccccc3)CC2C1 (stereo not drawn) |  | Activity [6]: inactive
12 | OC[C@@H]1CCCN1CCc1ccc(C2=CCC3CN(Cc4ccccc4)CC23)cc1 (stereo partly drawn) | 0.16 nM | 
13 | C1=C(c2ccc(CCN3CCCCC3)cc2)C2CN(Cc3ccccc3)CC2C1 (stereo not drawn) | 0.4 nM | 
14 | C1=C(c2ccc(CCN3CCCC3)cc2)C2CN(c3cncnc3)CC2C1 (stereo not drawn) | 7 nM | 
15 | C1=C(c2ccc(CCN3CCCC3)cc2)C2CN(C3CCCC3)CC2C1 (racemic) | 0.4 nM | 
16 | C1=C(c2ccc(CCN3CCCC3)cc2)C2CN(c3ccccc3)CC2C1 (stereo not drawn) | 67 nM | 
17 | OC[C@H]1CCCN1CCc1ccc(C2=CCC3CN(Cc4ccccc4)CC23)cc1 (stereo partly drawn) | 0.51 nM | 
18 | FC1(F)CCN(CCc2ccc(C3=CCC4CN(Cc5ccccc5)CC34)cc2)C1 (stereo not drawn) | 2.8 nM | 
19 | C1=C(c2ccc(CCN3CCCC3)cc2)[C@@H]2CN(Cc3ccccc3)C[C@@H]2C1 | 0.05 nM | Selectivity ratio (Homo sapiens [1]): > 1000; Selectivity ratio (Homo sapiens [2]): > 1000; Selectivity ratio (Homo sapiens [3]): > 1000
20 | CN1CCN(CCc2ccc(C3=CCC4CN(Cc5ccccc5)CC34)cc2)CC1 (stereo not drawn) | 58 nM | 
21 | C[C@H]1[C@H]2CC[C@H]3[C@@H]4CC=C5C[C@@H](N(C)C)CC[C@]5(C)[C@H]4CC[C@]23CN1C [CONESSINE] | 66 nM | 
22 | C1=C(c2ccc(CCN3CCCC3)cc2)C2CN(c3ccccn3)CC2C1 (stereo not drawn) | 2 nM | 
23 | C1=C(c2ccc(CCN3CCC3)cc2)C2CN(Cc3ccccc3)CC2C1 (stereo not drawn) | 2.4 nM | 
24 | C1=C(c2ccc(CCN3CCCC3)cc2)C2CN(Cc3ccccc3)CC2C1 (stereo not drawn) | 0.3 nM | 
25 | CC(C)N1CC2CC=C(c3ccc(CCN4CCCC4)cc3)C2C1 (racemic) | 0.9 nM | 
26 | CC(C)N1C[C@@H]2CC=C(c3ccc(CCN4CCCC4)cc3)[C@@H]2C1 | 0.29 nM | 
